Experimental data: patent US9585846B2, “Anti-microbial composition” (Wild Child, priority 2007, dated 2017)

Tested on: S. aureus ATCC 6538P
Test: Agar plate test of cream against S. aureus (colonies recovered)
Format: cell-based
Conditions: farnesol when combined with cetrimide
Procedure: A series of plates were then prepared containing an aliquot of sample (3) prepared in accordance with the preferred formula given above. The aliquot was suspended in tryptone soy agar. 1 g of the cream was emulsified into 5 mL of saline. A 2 mL aliquot was removed and serially diluted using saline. 6 mL of tryptone soy broth was then added to the suspensions. They were then added to 10 ml, of molten double strength tryptone soy agar and plate poured. Once cooled the plates were inoculated with 94 cfu of S. aureus ATCC 6538P. The plates were then incubated at 32° C. for 5 days. Following the incubation the number of colonies of S. aureus isolated was then determined.

SMILES: CC(C)=CCCC(C)=CCCC(C)=CCO [farnesol]
- Antimicrobial effect of the combination: synergistic antimicrobial effects
